Entries after “also recorded” stand apart in the source; their conditions may differ. Where a name gives a salt, the structure may show the parent alone.
Legend:
α1 or α2 receptors = settings: from J. Med. Chem. publications; cited from earlier work
α2-adrenergic receptors = experiment: Inhibition of the hypothermia induced with guanabenz; assay type: in vivo; settings: for ED50 inhibition of hypothermia / Range of active doses, inhibition of hypothermia / ED50 normalization of hypothermia / Range of active doses, normalization of hypothermia: i.p.; for Range of active doses, normalization of hypothermia: normalization (return to normal temperature); for Number of doses inducing the inhibition of hypothermia in 100% of the animals: each dose separated by a factor of 4
Procedure: The assessment of the biological activity of the compounds of the invention is also carried out in vivo by studying the inhibition of the hypothermia induced with a central α2-agonist such as guanabenz according to the protocol of S. C. Dilsaver, Pharmacol. Biochem. Behav., 45, 247, 1993.
The inhibitory capacities are expressed as the ED50 which represent the doses producing a significant inhibition of the hypothermia induced with guanabenz on the one hand, and a normalization, that is to say a return to the normal temperature for the animal, before injection of guanabenz on the other hand. These values are obtained using the method of J. T. Litchfield and F. Wilcoxon (J. Pharmacol. Exp. Ther., 96, 99, 1949). The comparison is made between the 2-methoxy compounds, fluorinated in position 5 (dextrorotatory compound of Example 1) and nonfluorinated: (+) RX 821002, and between the 2-ethoxy, fluorinated in position 5 (dextrorotatory compound of Example 2) and nonfluorinated: (+) RX 811059.

[1] = tested on: memory deficit induced with scopolamine; experiment: Memory deficit induced with scopolamine (passive avoidance test); assay type: in vivo; settings: rats; active doses over the range from 0.04 to 2.5 mg/kg
Description: In accordance with the cholinergic hypothesis of the phenomena of learning and memory, scopolamine has […] properties in animals and man. Its administration to a healthy person induces certain amnesia symptoms similar to those observed in Alzheimer's disease. It has been proposed that the scopolamine be used as an experimental pharmacological model of this pathology. The similarities between the memory deficits of Alzheimer's disease and those induced with scopolamine in rats have been published (P. Chopin et M. Briley, The effects of raubasine and dihydroergocristine on an […] deficit in passive avoidance learning in rats, J.Pharm.Pharmacol. 42, 375-376, 1990). Scopolamine reduces the capacity for acquisition, memorization and recall in a test of passive avoidance in rats. This involves measuring the reticence, after learning, that the animal has in entering a dark compartment, where it receives a mild electric shock. The administration of scopolamine suppresses this reticence, and the test compounds oppose the effect of scopolamine. The comparison of the products of the present invention is made with the known compound RX 821002, dextrorotatory enantiomer. The experimental protocol is that published by P. Chopin and M. Briley (Effects of four non-cholinergic cognitive enhancers in comparison with tacrine and galanthamine on scopolamine-induced amnesia in rats: Psychopharmacology, 106, 26-30, 1992).

release of noradrenalin = experiment: Release of noradrenalin: normetanephrine level in frontal cortex; assay type: in vivo; settings: mice, i.p., 0.01 to 2.5 mg/kg, 60 minutes, cortical tissue, HPLC
Procedure: The level of normetanephrine, a noradrenalin metabolite, in the cerebral tissues is used as a measurement of the release of noradrenalin. Wood, P. L. and coll. Pharmacological Rev. 40, 163-187, (1988), and J. Neurochem. 48, 574-579, (1987)). The formation of normetanephrine, by the action of catechol O-methyltransferase takes place on the outside of the noradrenergic neurones and its measurement takes account of variations in the release of noradrenalin. This measurement is performed in the frontal cortex, a region innervated mainly by the locus coeruleus.
The test compound is administered intraperitoneally to the mice, which are sacrificed after 60 minutes by irradiation with microwaves (to avoid any artefactual changes in the metabolite levels). After dissection, normetanephrine is assayed by HPLC on the cortical tissue extracts. At doses of 0.01 to 2.5 mg/kg, the assayed normetanephrine represents a level from 125 to 150% higher with the compound of Example 1, relative to (+) RX 821002, under the same conditions.

melting point [°C]	SMILES	ED50 inhibition of hypothermia (α2-adrenergic receptors) [mg/kg]	Range of active doses, inhibition of hypothermia (α2-adrenergic receptors) [mg/kg]	ED50 normalization of hypothermia (α2-adrenergic receptors) [mg/kg]	Range of active doses, normalization of hypothermia (α2-adrenergic receptors) [mg/kg]	Increase in the time taken to enter the dark compartment by the treated animals, relative to those receiving scopolamine alone (% amplitude of the effect) [1]	also measured
	COc1cc2c(cc1OC)OC(OC)(C1=NCCN1)CO2 (stereo not shown)						Activity relative to unsubstituted idazoxan analog / α2-presynaptic antagonist activity (α1 or α2 receptors): only extremely marginal activity
218	Fc1cccc2c1OCC(OCc1ccccc1)(C1=NCCN1)O2 (stereo not shown) (as salt: hydrochloride) (hydrate or solvate) [Example 8, 2-(5-Fluoro-2-benzyloxy-1,4-benzodioxan-2-yl)-imidazoline Hydrochloride]						
206	CCCOC1(C2=NCCN2)COc2c(F)cccc2O1 (stereo not shown) (as salt: hydrochloride) [Example 3, 2-(5-Fluoro-2-propoxy-1,4-benzodioxan-2-yl)-imidazoline Hydrochloride]						
214	C=CCOC1(C2=NCCN2)COc2c(F)cccc2O1 (stereo not shown) (as salt: hydrochloride) [Example 7, 2-(5-Fluoro-2-allyloxy-1,4-benzodioxan-2-yl)-imidazoline Hydrochloride]						
> 260	CCOC1(C2=NCCN2)COc2c(F)cccc2O1 (stereo not shown) (as salt: salt) [Example 2, 2-(5-Fluoro-2-ethoxy-1,4-benzodioxan-2-yl)-2-imidazoline]						
	CCOC1(C2=NCCN2)COc2ccccc2O1 (single isomer, unassigned; (+)) [(+) RX 811059, 2-ethoxy idazoxan]	0.08	0.04 to 10	0.32	0.16 to 10		
	COC1(C2=NCCN2)COc2ccccc2O1 (single isomer, unassigned; (+)) [(+) RX 821002, 2-methoxy idazoxan]	0.01	0.01 to 10	0.05	0.04 to 2.5	not significantly active; also recorded: non-significant	Number of doses inducing the inhibition of hypothermia in 100% of the animals (α2-adrenergic receptors): 2 doses; Doses normalizing the hypothermia in 100% of the animals (α2-adrenergic receptors; list of single doses): none; ED50 normalization (per os) (α2-adrenergic receptors): 0.56 mg/kg; Range of active doses (per os) normalization (α2-adrenergic receptors): 0.16 to 10 mg/kg; Proportion of the animals in which hypothermia is normalized (maximum reached) (α2-adrenergic receptors; reached at only 2 doses): 80%
	COC1(C2=NCCN2)COc2c(F)cccc2O1 (stereo not shown) [Dextrorotatory compound of Example 1, 2-(5-Fluoro-2-methoxy-1,4-benzodioxan-2-yl)-2-imidazoline]	0.003	0.0025 to 40	0.02	0.0025 to 10	201%	Number of doses inducing the inhibition of hypothermia in 100% of the animals (α2-adrenergic receptors): 6 doses; Number of doses normalizing the hypothermia in 100% of the animals (α2-adrenergic receptors; in vivo): 3 doses; ED50 normalization (per os) (α2-adrenergic receptors): 0.22 mg/kg; Range of active doses (per os) normalization (α2-adrenergic receptors): 0.04 to 40 mg/kg
	CCOC1(C2=NCCN2)COc2c(F)cccc2O1 (stereo not shown) [Dextrorotatory compound of Example 2, 2-(5-Fluoro-2-ethoxy-1,4-benzodioxan-2-yl)-2-imidazoline]	0.02	0.0025 to 40	0.16	0.01 to 10	198%	
	COc1cc2c(cc1OC)C(=O)C(CC1CCN(Cc3ccccc3)CC1)C2 (stereo not shown) [Donepezil]					67%	
	COC1(C2=NCCN2)COc2c(F)cccc2O1 (stereo not shown) [Example 1, 2-(5-Fluoro-2-methoxy-1,4-benzodioxan-2-yl)-2-imidazoline]						Assayed normetanephrine level relative to (+) RX 821002 (release of noradrenalin): 125 to 150 % higher
	Nc1c2c(nc3ccccc13)CCCC2 [Tacrine]					191%	

SMILES	melting point [°C]	ED50 inhibition of hypothermia (α2-adrenergic receptors) [mg/kg]	Range of active doses, inhibition of hypothermia (α2-adrenergic receptors) [mg/kg]	ED50 normalization of hypothermia (α2-adrenergic receptors) [mg/kg]	Range of active doses, normalization of hypothermia (α2-adrenergic receptors) [mg/kg]	Increase in the time taken to enter the dark compartment by the treated animals, relative to those receiving scopolamine alone (% amplitude of the effect) [1]	also measured
CC(C)COC1(C2=NCCN2)COc2c(F)cccc2O1 (stereo not shown) (as salt: hydrochloride) [Example 5, 2-(5-Fluoro-2-isobutoxy-1,4-benzodioxan-2-yl)-imidazoline Hydrochloride]	206						

Reference: US6610725B1, “Fluorinated imidazoline benzodioxane, preparation and therapeutic uses thereof” (Pierre Fabre Medicament, priority 1999, dated 2003)
